Assay results taken from patent publication US4469686A, “Substituted phosphinic acids” (priority 1980, dated 1984).

How the values were obtained:
[1] = Test for catalytic dismutation of superoxide; assay type: biochemical; details: test compound: copper glycine ratio of 4:1; read-out: Catalysis of superoxide dismutation, I50
From the text: (A) Test for catalytic dismutation of superoxide:
This test is relevant to degenerative joint disease and inflammation. The method followed is the method of M. YOUNES and U. WESER [Biochem.Biophys.Res.Commun. 1977, 78 (4) 1247-53] using a test compound: copper glycine ratio of 4:1.

[2] = Test for cupriuretic activity; assay type: in vivo; details: at 1 mM/kg
From the text: (B) Test for cupriuretic activity:
This test is relevant to Wilson's disease. The method followed is the method of K. GIBBS and J. M. WALSHE (Clinical Science and Molecular Medicine, 1977, 53, 317-20).

mice = assay: Acute toxicity studies in mice; assay type: in vivo; details: i.p.
Experimental: Acute toxicity studies in mice have shown that the minimum single dose to cause death is >2400 mg/kg i.p. for compound B and ≤400 mg/kg i.p. for DL-penicillamine.

Structure (SMILES)	IC50 [1]	Cupriuretic activity, % Increase [2]	minimum single dose to cause death (mice)
CC(C)(S)C(N)P(=O)(O)O (racemic) [Compound A, DL-(1-Amino-2-mercapto-2-methylpropyl)phosphonic acid]	1200 nM	139%	
CC(C)(S)C(N)[PH](=O)O (racemic) [Compound B, DL-(1-Amino-2-mercapto-2-methylpropyl)phosphinic acid]	1200 nM	397%	> 2400 mg/kg
CC1(C)NC(P(=O)(O)O)C(C)(C)S1 (racemic) [Compound C, DL-2,2,5,5-Tetramethyl-4-thiazolidinyl)phosphonic acid]		122%	
CC1(C)NC([PH](=O)O)C(C)(C)S1 (racemic) [Compound D, DL-(2,2,5,5-Tetramethyl-4-thiazolidinyl)phosphinic acid]		308%	
CC(C)(S)C(N)C(=O)O (racemic) [DL-penicillamine, reference compound]			≤ 400 mg/kg
